The values that follow come from patent publication US12109292B2, “Bioflavonoid compositions and their use” (Oraldent Limited, priority 2018, dated 2024).

In one experiment the test system is Streptococcus mutans. Description: Inhibition zone assay on agar plate. The format is cell-based. The note with it: 48 h at 37° C. anaerobe. How it is done: The antibacterial activity of ε-polylysine was semi-quantitatively assessed in a inhibition zone assay. 0.1 mL of a confluent Streptococcus mutans culture was spread over a Brain Heart Infusion (BHI) agar plate. Filter platelets (5 mm diameter) soaked with 0.01 mL substance were applied on plate. Plates were incubated 48 h at 37° C. under anaerobe conditions. The diameter of outer limit of the inhibition zones were measured, the diameter of the platelet deduced and the half result considered the radius of inhibition rings. Concentrations were tested in triplicate and their results averaged.

In another experiment the test system is S. mutans. Description: Short exposure assay (bactericidal effect), colony count. In kind it is cell-based, Streptococcus mutans. Particulars: 0.05%; 10 minutes; 5000 CFU inoculum. The method, then: The short-term antibacterial activity of Citrox was semi-quantitatively assessed in a short exposure assay. A S. mutans culture, diluted in order to contain 5000 Colony Forming Units, was incubated for 10 minutes in presence of the antibacterial substance and extemporarily plated onto a BHI agar plate. Plates were incubated at 37° C. under anaerobe conditions and colony counted. […] Citrox 0.5% reduced the count of CFU to the half (<3000 CFU).

Experiment [1] relates to Escherichia coli. Description: Pre-treatment of high binding plates with Citrox/ε-polylysine, then Escherichia coli growth inhibition (turbidity). The format is cell-based. How it is done:
High Binding plates were pre-treated with 0.1 mL of pure Citrox/ε-Polylysine solutions incubated 60′ at room temperature. The concentrations of Citrox range from 0.06% to 4%. The ε-Polylysine concentrations range from 30 mg/L to 120 mg/L. The wells have been emptied and rinsed with 0.2 mL bi-distilled water. 0.2 mL of a diluted Escherichia coli culture (turbidity: 5 m OD at 600 nm) were given to the pre-treated wells and incubated for 3 hours at 37° C. Turbidity were measured at 600 nm and percentage of growth inhibition in comparison to untreated well calculated (FIG. 1).

Experiment [2] deals with Escherichia coli. Description: Direct exposure of Escherichia coli mini cultures, minimal inhibitory concentration by turbidity. The format is cell-based. The note with it: E. coli, 5 hours at 37° C., extrapolated from FIG. 2.
Protocol: Growth inhibition was monitored by measuring turbidity of mini cultures after 5 hours of aerobe incubation at 37° C. under agitation. Solutions were diluted to the half in cascade.

Consider `OO` [Water peroxide, reference compound], for which the “Radius of inhibition rings” value in the experiment with Streptococcus mutans (0.1%) came out at 1.5 mm; with Streptococcus mutans (1%), 5 mm. For the same compound, the “colony formation after short exposure” value in the experiment on S. mutans was “complete absence of colony formation”.

As for ε-Polylysine, the “highest ε-polylysine concentration that does not affect significantly the antibacterial effect of Citrox pretreatment” value in the experiment on Escherichia coli [1] worked out at 30 mg/L. Further, the “effect of plate-absorbed substance on growth of bacteria in suspension” value with Escherichia coli [1] (high binding plate, substance absorbed onto solid surface) is listed as “does not affect the growth of bacteria in suspension”. Further, the “Minimal inhibitory concentration (MIC)” value with Escherichia coli [2] is on record as 4 mg/L. The “Radius of inhibition rings” value was determined as 0.5 mm in the experiment on Streptococcus mutans (10 mg/L), 2.5 mm in the experiment on Streptococcus mutans (100 mg/L) and 6.5 mm in the experiment with Streptococcus mutans (1000 mg/L).
